Data published in paper PMC13252604, “First Generation Proteolysis Targeting Chimeras (PROTACs) for the Treatment of Progeria” (Advanced Science, 2026).

Molecular target: T1, progerin (Homo sapiens, UniProt P02545)
T1 construct: endogenous in cells; host or cells: HGADFN167 human HGPS fibroblasts (Progeria Research Foundation)
T1 sequence (P02545 1-614 isoform P02545-6): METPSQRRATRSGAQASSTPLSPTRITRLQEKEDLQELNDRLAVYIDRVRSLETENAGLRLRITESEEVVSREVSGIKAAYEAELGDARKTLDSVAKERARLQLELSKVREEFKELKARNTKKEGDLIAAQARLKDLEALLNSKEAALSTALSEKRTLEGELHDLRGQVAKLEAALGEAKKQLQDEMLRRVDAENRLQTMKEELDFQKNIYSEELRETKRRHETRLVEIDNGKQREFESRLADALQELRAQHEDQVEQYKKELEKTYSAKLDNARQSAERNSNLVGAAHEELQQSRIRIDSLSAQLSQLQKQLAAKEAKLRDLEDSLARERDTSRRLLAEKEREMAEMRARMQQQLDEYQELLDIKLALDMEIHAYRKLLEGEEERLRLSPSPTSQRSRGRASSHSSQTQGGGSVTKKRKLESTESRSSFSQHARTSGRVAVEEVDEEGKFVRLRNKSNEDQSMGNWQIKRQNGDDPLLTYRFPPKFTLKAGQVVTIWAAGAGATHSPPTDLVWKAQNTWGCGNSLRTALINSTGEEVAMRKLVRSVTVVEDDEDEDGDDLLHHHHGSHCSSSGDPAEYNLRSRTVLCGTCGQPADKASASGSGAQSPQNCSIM
Assay: Progerin quantification, immunoblot in human Lmna^G608G/G608G fibroblasts
Type: cell-based
Conditions: human Lmna^G608G/G608G patient-derived fibroblasts, vs vehicle
Source text: FIGURE 6 (A) Representative cropped immunoblots and progerin quantification in human Lmna^G608G/G608G fibroblasts. MW, molecular weight (in kDa) markers. […] (B) PROTAC 2 increases cell proliferation (upper panels) and decreases the number of misshapen nuclei (lower panels). White arrows highlight selected misshapen nuclei. (C) PROTAC 2 decreases senescence‐associated β‐galactosidase (SA‐βgal) activity, interleukin (IL) 6, p16 and p21 senescent markers. Bar graphs show mean±sem of 2 (SA‐βgal and p21) or 3 (IL‐6 and p16) independent experiments performed in triplicate. (D) PROTAC 2 decreases phosphorylated histone 2AX (pH2AX) and increases trimethylated histone 3 (H3K9Me3) levels. (E) PROTAC 2 increases the oxygen consumption rate (OCR), ATP production and the number of healthy mitochondria in human progeroid cells. […] Data were analysed using one‐way ANOVA followed by Dunnett's post–hoc test vs vehicle (panel A) or vs G608G cells (panels B‐E). ^*, p < 0.05; ^**, p < 0.01; ^***, p < 0.001; ^****, p < 0.0001. […]
was saturated at 100 ppm. Relative STD effects were calculated by comparing the intensity of the signals in the STD-NMR spectrum with signal intensities of the reference spectrum (off-resonance). The STD signal with the highest intensity was set to 100%, a nd other STD signals were calculated accordingly. […]
Cell viability was assessed as previously described.[64] […]

CC1(C)Oc2cc3oc(=O)ccc3cc2C[C@@H]1OC(=O)CCCCCNc1cccc2c1C(=O)N(C1CCC(=O)NC1=O)C2=O (some centres unmarked) [compound 2]
progerin levels (immunoblot quantification): the most potent in human cells

CC1(C)Oc2cc3oc(=O)ccc3cc2C[C@@H]1OC(=O)CCCCC(=O)Oc1ccc2c(c1)CCCN2C(=O)CCl [compound 12]
progerin levels (immunoblot quantification): exhibited significant activity in human cells
